{"source": "patent US8192962B2", "about": "“Processes for detecting toxic substances” (Daikin Industries, Ltd., priority 2001, dated 2012)", "system": "Detoxification protein genes", "test": "DNA chip mRNA expression in yeast, detoxification protein genes (Table 8)", "type": "cell-based, Saccharomyces cerevisiae S288C", "outline": "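First, S288C yeast grown in YPD at 25° C. are dosed in log phase with one toxicant (growth-inhibiting, not lethal) for 2 h. Next, total RNA is extracted and poly(A) mRNA isolated and reverse-transcribed with Cy3/Cy5-dUTP. Finally, whole-genome chip fluorescence is read relative to unexposed cells.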", "data": [{"compound": "CCCCCCCCCCCCOS(=O)(=O)[O-].[Na+]", "note": "[(18), sodium lauryl sulfate]", "values": [{"measurement": "The level of expressed mRNA in the presence of chemical substance/The level of expressed mRNA in the absence of chemical substance", "setting": "yeast gene YBL064C", "result": 2.3}, {"measurement": "The level of expressed mRNA in the presence of chemical substance/The level of expressed mRNA in the absence of chemical substance", "setting": "yeast gene YBR008C", "result": 1.2}, {"measurement": "The level of expressed mRNA in the presence of chemical substance/The level of expressed mRNA in the absence of chemical substance", "setting": "yeast gene YBR145W", "result": 2.0}, {"measurement": "The level of expressed mRNA in the presence of chemical substance/The level of expressed mRNA in the absence of chemical substance", "setting": "yeast gene YBR244W", "result": 1.2}, {"measurement": "The level of expressed mRNA in the presence of chemical substance/The level of expressed mRNA in the absence of chemical substance", "setting": "yeast gene YBR293W", "result": 0.9}, {"measurement": "The level of expressed mRNA in the presence of chemical substance/The level of expressed mRNA in the absence of chemical substance", "setting": "yeast gene YCL035C", "result": 4.2}, {"measurement": "The level of expressed mRNA in the presence of chemical substance/The level of expressed mRNA in the absence of chemical substance", "setting": "yeast gene YCL069W", "result": 1.0}, {"measurement": "The level of expressed mRNA in the presence of chemical substance/The level of expressed mRNA in the absence of chemical substance", "setting": "yeast gene YCR083W", "result": 1.3}, {"measurement": "The level of expressed mRNA in the presence of chemical substance/The level of expressed mRNA in the absence of chemical substance", "setting": "yeast gene YDL100C", "result": 1.4}, {"measurement": "The level of expressed mRNA in the presence of chemical substance/The level of expressed mRNA in the absence of chemical substance", "setting": "yeast gene YDL168W", "result": 0.8}, {"measurement": "The level of expressed mRNA in the presence of chemical substance/The level of expressed mRNA in the absence of chemical substance", "setting": "yeast gene YDR256C", "result": 2.0}, {"measurement": "The level of expressed mRNA in the presence of chemical substance/The level of expressed mRNA in the absence of chemical substance", "setting": "yeast gene YDR453C", "result": 1.5}, {"measurement": "The level of expressed mRNA in the presence of chemical substance/The level of expressed mRNA in the absence of chemical substance", "setting": "yeast gene YDR513W", "result": 3.2}, {"measurement": "The level of expressed mRNA in the presence of chemical substance/The level of expressed mRNA in the absence of chemical substance", "setting": "yeast gene YDR538W", "result": 0.9}, {"measurement": "The level of expressed mRNA in the presence of chemical substance/The level of expressed mRNA in the absence of chemical substance", "setting": "yeast gene YEL027W", "result": 1.4}, {"measurement": "The level of expressed mRNA in the presence of chemical substance/The level of expressed mRNA in the absence of chemical substance", "setting": "yeast gene YEL065W", "result": 0.6}, {"measurement": "The level of expressed mRNA in the presence of chemical substance/The level of expressed mRNA in the absence of chemical substance", "setting": "yeast gene YER185W", "result": 1.1}, {"measurement": "The level of expressed mRNA in the presence of chemical substance/The level of expressed mRNA in the absence of chemical substance", "setting": "yeast gene YFL050C", "result": 1.0}, {"measurement": "The level of expressed mRNA in the presence of chemical substance/The level of expressed mRNA in the absence of chemical substance", "setting": "yeast gene YGL013C", "result": 1.0}, {"measurement": "The level of expressed mRNA in the presence of chemical substance/The level of expressed mRNA in the absence of chemical substance", "setting": "yeast gene YGL254W", "result": 1.2}, {"measurement": "The level of expressed mRNA in the presence of chemical substance/The level of expressed mRNA in the absence of chemical substance", "setting": "yeast gene YGR088W", "result": 2.0}, {"measurement": "The level of expressed mRNA in the presence of chemical substance/The level of expressed mRNA in the absence of chemical substance", "setting": "yeast gene YGR138C", "result": 0.7}, {"measurement": "The level of expressed mRNA in the presence of chemical substance/The level of expressed mRNA in the absence of chemical substance", "setting": "yeast gene YGR197C", "result": 1.9}, {"measurement": "The level of expressed mRNA in the presence of chemical substance/The level of expressed mRNA in the absence of chemical substance", "setting": "yeast gene YGR209C", "result": 2.4}, {"measurement": "The level of expressed mRNA in the presence of chemical substance/The level of expressed mRNA in the absence of chemical substance", "setting": "yeast gene YGR224W", "result": 1.3}, {"measurement": "The level of expressed mRNA in the presence of chemical substance/The level of expressed mRNA in the absence of chemical substance", "setting": "yeast gene YHL040C", "result": 1.0}, {"measurement": "The level of expressed mRNA in the presence of chemical substance/The level of expressed mRNA in the absence of chemical substance", "setting": "yeast gene YHL047C", "result": 1.2}, {"measurement": "The level of expressed mRNA in the presence of chemical substance/The level of expressed mRNA in the absence of chemical substance", "setting": "yeast gene YHR008C", "result": 1.0}, {"measurement": "The level of expressed mRNA in the presence of chemical substance/The level of expressed mRNA in the absence of chemical substance", "setting": "yeast gene YHR048W", "result": 0.9}, {"measurement": "The level of expressed mRNA in the presence of chemical substance/The level of expressed mRNA in the absence of chemical substance", "setting": "yeast gene YHR053C", "result": 0.5}, {"measurement": "The level of expressed mRNA in the presence of chemical substance/The level of expressed mRNA in the absence of chemical substance", "setting": "yeast gene YHR055C", "result": 0.6}, {"measurement": "The level of expressed mRNA in the presence of chemical substance/The level of expressed mRNA in the absence of chemical substance", "setting": "yeast gene YIR002C", "result": 1.2}, {"measurement": "The level of expressed mRNA in the presence of chemical substance/The level of expressed mRNA in the absence of chemical substance", "setting": "yeast gene YIR038C", "result": 2.0}, {"measurement": "The level of expressed mRNA in the presence of chemical substance/The level of expressed mRNA in the absence of chemical substance", "setting": "yeast gene YJL101C", "result": 1.0}, {"measurement": "The level of expressed mRNA in the presence of chemical substance/The level of expressed mRNA in the absence of chemical substance", "setting": "yeast gene YJR104C", "result": 1.1}, {"measurement": "The level of expressed mRNA in the presence of chemical substance/The level of expressed mRNA in the absence of chemical substance", "setting": "yeast gene YKL026C", "result": 3.3}, {"measurement": "The level of expressed mRNA in the presence of chemical substance/The level of expressed mRNA in the absence of chemical substance", "setting": "yeast gene YKL064W", "result": 1.3}, {"measurement": "The level of expressed mRNA in the presence of chemical substance/The level of expressed mRNA in the absence of chemical substance", "setting": "yeast gene YKR066C", "result": 1.1}, {"measurement": "The level of expressed mRNA in the presence of chemical substance/The level of expressed mRNA in the absence of chemical substance", "setting": "yeast gene YKR105C", "result": 1.0}, {"measurement": "The level of expressed mRNA in the presence of chemical substance/The level of expressed mRNA in the absence of chemical substance", "setting": "yeast gene YKR106W", "result": 0.8}, {"measurement": "The level of expressed mRNA in the presence of chemical substance/The level of expressed mRNA in the absence of chemical substance", "setting": "yeast gene YLL028W", "result": 1.2}, {"measurement": "The level of expressed mRNA in the presence of chemical substance/The level of expressed mRNA in the absence of chemical substance", "setting": "yeast gene YLL057C", "result": 1.3}, {"measurement": "The level of expressed mRNA in the presence of chemical substance/The level of expressed mRNA in the absence of chemical substance", "setting": "yeast gene YLL060C", "result": 2.3}, {"measurement": "The level of expressed mRNA in the presence of chemical substance/The level of expressed mRNA in the absence of chemical substance", "setting": "yeast gene YLR043C", "result": 2.2}, {"measurement": "The level of expressed mRNA in the presence of chemical substance/The level of expressed mRNA in the absence of chemical substance", "setting": "yeast gene YLR046C", "result": 5.4}, {"measurement": "The level of expressed mRNA in the presence of chemical substance/The level of expressed mRNA in the absence of chemical substance", "setting": "yeast gene YML028W", "result": 1.5}, {"measurement": "The level of expressed mRNA in the presence of chemical substance/The level of expressed mRNA in the absence of chemical substance", "setting": "yeast gene YML116W", "result": 1.0}, {"measurement": "The level of expressed mRNA in the presence of chemical substance/The level of expressed mRNA in the absence of chemical substance", "setting": "yeast gene YMR015C", "result": 1.0}, {"measurement": "The level of expressed mRNA in the presence of chemical substance/The level of expressed mRNA in the absence of chemical substance", "setting": "yeast gene YMR038C", "result": 1.3}, {"measurement": "The level of expressed mRNA in the presence of chemical substance/The level of expressed mRNA in the absence of chemical substance", "setting": "yeast gene YNL239W", "result": 1.4}, {"measurement": "The level of expressed mRNA in the presence of chemical substance/The level of expressed mRNA in the absence of chemical substance", "setting": "yeast gene YNL241C", "result": 1.0}, {"measurement": "The level of expressed mRNA in the presence of chemical substance/The level of expressed mRNA in the absence of chemical substance", "setting": "yeast gene YNL259C", "result": 2.4}, {"measurement": "The level of expressed mRNA in the presence of chemical substance/The level of expressed mRNA in the absence of chemical substance", "setting": "yeast gene YOL158C", "result": 1.7}, {"measurement": "The level of expressed mRNA in the presence of chemical substance/The level of expressed mRNA in the absence of chemical substance", "setting": "yeast gene YOR031W", "result": 2.4}, {"measurement": "The level of expressed mRNA in the presence of chemical substance/The level of expressed mRNA in the absence of chemical substance", "setting": "yeast gene YOR153W", "result": 3.1}, {"measurement": "The level of expressed mRNA in the presence of chemical substance/The level of expressed mRNA in the absence of chemical substance", "setting": "yeast gene YOR247W", "result": 0.9}, {"measurement": "The level of expressed mRNA in the presence of chemical substance/The level of expressed mRNA in the absence of chemical substance", "setting": "yeast gene YOR251C", "result": 1.3}, {"measurement": "The level of expressed mRNA in the presence of chemical substance/The level of expressed mRNA in the absence of chemical substance", "setting": "yeast gene YOR273C", "result": 3.1}, {"measurement": "The level of expressed mRNA in the presence of chemical substance/The level of expressed mRNA in the absence of chemical substance", "setting": "yeast gene YPL163C", "result": 1.4}, {"measurement": "The level of expressed mRNA in the presence of chemical substance/The level of expressed mRNA in the absence of chemical substance", "setting": "yeast gene YPR200C", "result": 1.0}]}]}
